Reference: paper PMC7796287, “Phloroglucinol Derivatives from Dryopteris crassirhizoma as Potent Xanthine Oxidase Inhibitors” (Molecules, 2020)
Like-named read-outs stand apart in the source and are kept apart here.

Experiments:
xanthine oxidase (XO) = target: T1, xanthine oxidase (XO) (Bos taurus, UniProt P80457); assay: Assay of XO-inhibitory activity and kinetics (oxidation of xanthine to uric acid, absorbance at 295 nm); type: biochemical, bovine milk; conditions: for Xanthine Oxidase Kinetic Mode / Ki: Lineweaver–Burk and Dixon plots; for Ki: read-out: Xanthine Oxidase Ki (inhibition constant); for IC50: isolated compounds and positive controls, substrate xanthine, pH 7.5, 37 °C; for inhibition at 25 µM: read-out: Xanthine Oxidase Inhibition %
T1 construct: 20 µL of 0.1 unit XO enzyme (bovine milk) in buffer; from tissue; host or cells: bovine milk
Method: The extracts from four different polar solvents (EtOAc, MeOH, 50% MeOH, and H2O) were tested for their enzyme-inhibitory activities against XO. The enzyme assay followed the oxidation of xanthine to uric acid at 295 nm spectrophotometrically. […] In addition to ^13C-NMR data, various spectroscopic data were used to identify the structures. […]
XO-inhibitory activity was assayed spectrophotometrically on a SpectraMax M2 microplate reader, using a previously reported experimental procedure with a slight modification. First, 135 µL of 100 mM sodium pyrophosphate buffer (HCl, pH 7.5), 20 µL of 0.1 unit XO enzyme (bovine milk) in buffer, and 5 µL of samples (test extracts or compounds) in dimethylsulfoxide were mixed at 37 °C. The reaction was started by adding 40 µL of substrate (0.5 mM xanthine) in buffer to the mixture. The reaction mixture (200 µL) was incubated at 37 °C in a 300 µL well plate and the UV absorbance at 295 nm was determined every 1 min up to 5 min.

T1 sequence (P80457 whole entry): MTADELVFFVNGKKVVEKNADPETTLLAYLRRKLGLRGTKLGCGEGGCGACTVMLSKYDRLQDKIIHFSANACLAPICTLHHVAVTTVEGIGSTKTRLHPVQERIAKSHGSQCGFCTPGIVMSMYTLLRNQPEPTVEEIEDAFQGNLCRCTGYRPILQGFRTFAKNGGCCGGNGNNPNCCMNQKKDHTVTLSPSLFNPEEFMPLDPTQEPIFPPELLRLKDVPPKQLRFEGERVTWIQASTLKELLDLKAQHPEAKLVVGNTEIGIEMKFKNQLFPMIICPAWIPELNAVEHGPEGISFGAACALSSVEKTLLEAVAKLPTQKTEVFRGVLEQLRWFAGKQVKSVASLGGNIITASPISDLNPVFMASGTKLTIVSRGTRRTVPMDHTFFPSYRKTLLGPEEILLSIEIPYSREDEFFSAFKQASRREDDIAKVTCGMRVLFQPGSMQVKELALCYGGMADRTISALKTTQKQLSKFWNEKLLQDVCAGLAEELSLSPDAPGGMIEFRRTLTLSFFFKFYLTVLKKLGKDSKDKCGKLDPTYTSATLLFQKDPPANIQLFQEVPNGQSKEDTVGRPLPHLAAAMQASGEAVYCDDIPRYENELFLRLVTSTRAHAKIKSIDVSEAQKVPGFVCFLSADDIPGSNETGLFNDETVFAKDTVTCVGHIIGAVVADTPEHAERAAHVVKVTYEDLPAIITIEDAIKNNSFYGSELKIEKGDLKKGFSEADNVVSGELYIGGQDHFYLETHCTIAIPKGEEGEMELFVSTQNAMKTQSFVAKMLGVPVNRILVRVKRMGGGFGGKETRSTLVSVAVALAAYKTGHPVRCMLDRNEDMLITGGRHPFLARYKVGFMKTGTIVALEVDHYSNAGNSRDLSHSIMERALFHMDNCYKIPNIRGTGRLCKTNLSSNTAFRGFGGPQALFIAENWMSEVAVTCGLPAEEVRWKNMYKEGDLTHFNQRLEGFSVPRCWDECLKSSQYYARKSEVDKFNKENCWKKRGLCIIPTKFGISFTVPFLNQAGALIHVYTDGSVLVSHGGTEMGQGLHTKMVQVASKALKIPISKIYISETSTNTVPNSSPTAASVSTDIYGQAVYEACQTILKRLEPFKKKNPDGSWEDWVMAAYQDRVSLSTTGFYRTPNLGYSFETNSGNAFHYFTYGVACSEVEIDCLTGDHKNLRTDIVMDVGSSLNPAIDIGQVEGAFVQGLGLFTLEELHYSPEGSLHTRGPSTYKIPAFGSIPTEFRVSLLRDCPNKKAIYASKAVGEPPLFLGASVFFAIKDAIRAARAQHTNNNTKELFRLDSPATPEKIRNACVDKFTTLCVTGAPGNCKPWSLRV

SMILES	Xanthine Oxidase Kinetic Mode (xanthine oxidase (XO))	Ki (xanthine oxidase (XO))	IC50 (xanthine oxidase (XO))	inhibition at 25 µM (xanthine oxidase (XO); sample concentration 25 µM)	melting point	efficacy of 1 relative to 4 (fold, from IC50) (xanthine oxidase (XO); XO inhibition, compared with 4 (IC50 = 20.9 µM))	Reversibility of XO inhibition (xanthine oxidase (XO); activity versus enzyme concentration (0-0.2 units/mL) at different inhibitor concentrations)	inhibition at 25 µM (xanthine oxidase (XO))
CCCC(=O)c1c(O)c(C)c(O)c(CC2=C(O)C(C)(C)C(O)=C(C(=O)CC)C2=O)c1O [Compound 3, flavaspidic acid PB]	Noncompetitive	15.3 µM	13.2 ± 0.6 µM	62.1 ± 0.9%	156 to 158 °C	–	–	–
CCCC(=O)C1=C(O)C(C)(C)C(O)=C(Cc2c(O)c(C)c(O)c(C(=O)CCC)c2O)C1=O [Compound 4, 2-butyryl-6-(3-butyryl-2,4,6-trihydroxy-5-methylbenzyl)-3,5-dihydroxy-4,4-dimethylcyclohexa-2,5-dienone]	Noncompetitive	21.1 µM	20.9 ± 0.9 µM	54.4 ± 1.5%	–	–	–	–
Oc1ncnc2[nH]ncc12 [Allopurinol, reference compound]	Competitive	–	–	–	–	–	–	82.5 ± 1.7%
O=c1[nH]c(=O)c2c[nH]nc2[nH]1 [Oxypurinol, reference compound]	–	–	43.1 ± 0.8 µM	42.2 ± 1.2%	–	–	–	–

Now from value to molecule, other results behind:

Xanthine Oxidase Kinetic Mode (xanthine oxidase (XO))	Ki (xanthine oxidase (XO))	IC50 (xanthine oxidase (XO))	inhibition at 25 µM (xanthine oxidase (XO); sample concentration 25 µM)	melting point	efficacy of 1 relative to 4 (fold, from IC50) (xanthine oxidase (XO); XO inhibition, compared with 4 (IC50 = 20.9 µM))	Reversibility of XO inhibition (xanthine oxidase (XO); activity versus enzyme concentration (0-0.2 units/mL) at different inhibitor concentrations)	SMILES	inhibition at 25 µM (xanthine oxidase (XO))
Noncompetitive	11.7 µM	10.2 ± 0.5 µM	68.1 ± 1.3%	158 to 160 °C	–	–	CCCC(=O)c1c(O)c(C)c(O)c(CC2=C(O)C(C)(C)C(O)=C(C(C)=O)C2=O)c1O [Compound 2, flavaspidic acid AB]	–
noncompetitive inhibitor	7.8 µM	6.3 ± 0.4 µM	79.6 ± 1.6%	–	~4 fold	reversible inhibitor	CCC(=O)c1c(O)c(C)c(O)c(CC2=C(O)C(C)(C)C(O)=C(C(C)=O)C2=O)c1O [Compound 1, flavaspidic acid AP]	–
